Test results: patent publication US11944624B2, “Peptide and small molecule agonists of EphA and their uses” (CASE WESTERN RESERVE UNIVERSITY, priority 2017, dated 2024)

Molecular target: T1, EphB3 (Homo sapiens, UniProt P54753)
T1 construct: expressed in transfected cells; host or cells: HEK 293
T1 sequence (P54753 34-998): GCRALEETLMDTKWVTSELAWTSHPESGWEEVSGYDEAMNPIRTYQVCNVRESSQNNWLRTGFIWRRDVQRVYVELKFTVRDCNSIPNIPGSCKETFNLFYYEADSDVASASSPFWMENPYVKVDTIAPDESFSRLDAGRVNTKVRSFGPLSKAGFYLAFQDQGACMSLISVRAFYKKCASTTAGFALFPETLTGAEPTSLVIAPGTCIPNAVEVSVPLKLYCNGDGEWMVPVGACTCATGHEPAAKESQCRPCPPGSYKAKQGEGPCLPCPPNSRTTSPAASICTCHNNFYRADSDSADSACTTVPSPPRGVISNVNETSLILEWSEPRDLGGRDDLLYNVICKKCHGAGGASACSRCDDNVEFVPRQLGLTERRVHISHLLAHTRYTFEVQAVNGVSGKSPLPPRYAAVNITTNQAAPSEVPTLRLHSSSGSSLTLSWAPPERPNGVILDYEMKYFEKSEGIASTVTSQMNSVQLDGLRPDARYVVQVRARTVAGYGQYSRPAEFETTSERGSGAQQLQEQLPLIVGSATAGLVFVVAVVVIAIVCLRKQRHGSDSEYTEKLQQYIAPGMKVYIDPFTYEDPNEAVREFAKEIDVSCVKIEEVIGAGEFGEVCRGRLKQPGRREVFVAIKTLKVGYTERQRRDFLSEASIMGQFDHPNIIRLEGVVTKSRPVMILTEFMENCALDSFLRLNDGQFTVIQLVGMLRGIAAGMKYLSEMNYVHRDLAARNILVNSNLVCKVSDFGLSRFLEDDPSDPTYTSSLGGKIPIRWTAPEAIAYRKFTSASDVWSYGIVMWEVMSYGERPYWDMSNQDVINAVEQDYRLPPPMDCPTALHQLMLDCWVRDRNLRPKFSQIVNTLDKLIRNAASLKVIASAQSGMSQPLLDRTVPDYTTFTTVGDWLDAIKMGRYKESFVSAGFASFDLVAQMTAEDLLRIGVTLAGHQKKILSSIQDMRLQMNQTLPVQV
Assay: EphB3 activation in HEK 293 cells overexpressing EphB3
Format: cell-based
Conditions: HEK 293 overexpressing EphB3, high basal activation
Protocol: Cells were plated in 24-well dishes at a density of 100,000 cells/well and grown for 24 hours prior to stimulation with appropriate compounds and ephrins for the given amounts of time. Compounds were prepared in DMSO at 500 times the final concentrations and 0.2% DMSO was used as vehicle control. Following treatment, cells were lysed directly in SDS Gel Loading Buffer and immunoblotted as described previously. […] For immunoprecipitation, 300,000 cells/well were plated in 6-well dishes and lysed in modified RIPA Buffer (20 mM Tris-HCl pH 7.4, 20 mM NaF, 150 mM NaCl, 10% glycerol, 0.1% SDS, 0.5% DCA, 2 mM EDTA, 1% Triton X-100) following treatment. Either 10 μg of ephrin-A1-Fc, or 4 mg of EphA2 mouse monoclonal antibody (Clone D7, Millipore) were used, and mouse IgG was used as a negative control for EphA2 IP. […] For this purpose, HEK 293 cell lines overexpressing EphA1, EphA2, EphA3, EphA4, and EphB3 kinases were utilized.

Q: How did the EphB3 activation turn out when COc1cc2nc(N3CCN(C(=O)C4COc5ccccc5O4)CC3)nc(N)c2cc1OC (stereo not shown) [Doxazosin, 2-[4-(2,3-Dihydro-1,4-benzodioxine-2-carbonyl)piperazin-1-yl]-6,7-dimethoxyquinazolin-4-amine] was run?
A: notable decrease in EphB3 activation
